Key:
S. mutans UA159 biofilm = assay: S. mutans biofilm treatment in vitro on glass slides; type: cell-based, Streptococcus mutans; conditions: 55 μM; 10 min every 12 h, 3 times; confocal (Figure S10A-B)
Protocol: a concentration of 1×10^8 CFU/mL. pHly-1 NPs and CHX were diluted in BHI containing 1% sucrose to reach a series of concentration s and added to 96-well microplates (180 μL). Then, 2 μL S.mutans suspensions were seeded into 96-well microplates in the presence of different concentrations of pHly -1 NPs and CHX and the plate was incubated at 37 °C. After 24 h, the culture supernatants were gently discarded, and each well was rinsed three times with PBS (pH 7.0) to remove unattached bacteria. The bacterial viability was measured by methyl thiazol tetrazolium (MTT) assay. […] The MTT assay was performed to determined the minimum biofilm inhibition concentration (MBIC 50) by using the Microplate Reader at OD 490 nm 7. […]
S.mutans biofilm treatment in vitro, characterization and quantitative analysis.
Biofilms were formed on circular glass slides in a 24-well plate. […] B iofilms formed on glass slides were used for SEM, fluorescent staining and bacterial quantitative analyses. […]
For quantitative analysis9,10, after the treatment was finished, biofilms were removed from the glass slides and homogenized by water bath sonication followe d by probe sonication at an output of 7 W for 30 s (Branson Sonifier 150, Branson Ultrasonics). […] The effect of pHly- 1 NPs or CHX on biofilms was measured by counting the CFU of alive bacteria with agar plating after incubation for 48 h at 37 °C. […]

S. mutans UA159 = assay: Bacterial killing assay (CFU counting), S. mutans UA159; type: cell-based, Streptococcus mutans; conditions: for bactericidal effect: 10 min
Protocol: Minimal inhibition concentration (MIC) determination . S.mutans UA159 (ATCC 700610) and 20 clinical S.mutans strains were used. S.mutans UA159 was purchased from Shanghai Biofeng Biotechnology Co., LTD. These bacteria grown in brain heart infusion broth (BHI, Beijing Land Bridge, China) at 37 °C under anaerobic conditions. […]
Bacterial killing by pHly-1 NPs at various pHs. pHly-1 NPs were diluted in BHI medium of different pHs (pH 4.5, 5.5, 6.8, and 7.0) to obtain specific diluted solutions (final volume of 200 μ L). 1 μ L bacterial suspension (2×10^8 CFU/mL) in the logarithmic phase was added into corresponding diluted solutions and mixed […]
individually. […]
aliquots of 20 μL bacterial suspension were plated on BHI agar plates. The bacterial killing activity of pHly -1 NPs was measured by counting the CFU of alive bacteria with agar plating after incubation under anaerobic conditions for 48 h at 37 °C. The results were determined and presented of three repeats. Bacterial survival(%) = CFU of bacteria treated with drugs/CFU of bacteria treated with negative control× 100% 2.
The SYTO 9 / PI double staining and scanning electron microscopy (SEM) were also performed to evaluate the bacterial killing and bacterial membrane disruption.
For SYTO 9/PI double staining, pHly -1 NPs was added to actively growing S. mutans UA159 (10^6 CFU/m L) at the concentration of 22 μM at pH 4.5 or pH 7.0, after 1 h incubation, the bacteria treated were imaged by using LIVE/DEAD BacLight Bacterial Viability Kit (Thermo Fisher Scientific). SYTO 9 and PI were added according to the manufacturer ’s protocol and used for labeling […]
bacteria. […]
For SEM, S. mutans UA159 was treated by the same way to SYTO 9/PI double staining asay and then harvested, washed, and then fixed in 2.5 % glutaraldehyde for 3 h. After dehydration by serial concentrations of ethanol solutions (10%, 25%, 50%, 75%, 95%, and 100%) and lyophiliz ation overnight, the lyophilized samples were coated with goldand then photographed by SEM.

Q: For [H]/N=C(\N/C(=N/[H])NCCCCCCNC(=N)NC(=N)Nc1ccc(Cl)cc1)Nc1ccc(Cl)cc1 [CHX, chlorhexidine], which “suppression effect on pre-formed biofilm” value (S. mutans UA159 biofilm) is on record?
A: almost negligible

Q: And the bactericidal effect (S. mutans UA159; 22 μM, both acidic and neutral pH)?
A: no apparent bactericidal effect

Q: What about the bacterial survival (S. mutans UA159; 22 μM, 120 min, kinetic assay) of the same compound?
A: ca. 60%

Q: And the bactericidal effect (S. mutans UA159; 550 μM, both acidic and neutral conditions)?
A: kill bacteria completely

From article PMC9254247, “Dual-sensitive antibacterial peptide nanoparticles prevent dental caries” (Theranostics, 2022)
